Data on 2 compounds can be found in patent US10052326B1, “Antihepatotoxic agents” (KING SAUD UNIVERSITY, priority 2017, dated 2018).

For series [1], the system named is CCl4-induced hepatotoxicity. The experiment in a line: Serum lipid profile in CCl4-intoxicated rats. The series is classed as in vivo, Wistar albino rats. Conditions: 20 mg/kg, two week pretreatment before CCl4. The protocol:
(§1) Animals and study design: Wistar albino rats (180-200 g) were obtained from the Experimental Animal Care Center of the College of Pharmacy, King Saud University, Riyadh. Animals were maintained on standard chow diet and housed in polycarbonate cages in a room free from any source of chemical contamination, artificially illuminated (12 h dark/light cycle) and thermally controlled (25±2° C.) at the animal facility. All animals received humane care in compliance with the guidelines of the Ethics Committee of the Experimental Animal Care Society, College of Pharmacy, King Saud University, Riyadh, Saudi Arabia. After a one-week acclimatization period, animals were randomly allocated into 5 groups and treated as follows: group (1), untreated control; and groups 2, 3, 4, and 5 received 0.25 mL of CCl4 in liquid paraffin (1:1) 1.25 mL/kg body weight intraperitoneally (IP). Group 2 was administered only CCl4. Groups 3 and 4 received DHBP-2 (10 mg/kg) and (20 mg/kg/day) orally for 2 weeks, respectively. Rats in group 5 were treated with (10 mg/kg) orally with silymarin for similar days. The blood was collected by cardiac puncture after 24 hours following the administration of CCl4, allowed to clot, and the serum was then separated. After collecting the blood, the animals were sacrificed using ether anesthesia. The rat livers were dissected out and used for biochemical estimations and histological assessment.

In series [2] the test system is mice. In words: Acute toxicity test, oral administration. The series is classed as in vivo. Conditions: in 0.5% CMC, observation up to 14 days. On the procedure:
Acute toxicity test: The acute toxicity test was performed on mice, for oral administration. DHPB-2 was dissolved in 0.5% CMC (carboxymethylcellulose) in water and administered at various doses, ranging from ([…]), to different groups of mice. The animals were observed continuously for 1 h and then at half hourly intervals for 4 h on the first day for clinical signs and symptoms of toxicity, and further up to 72 h followed by 14 days, for any mortality.

The subject of series [3] is CCl4-induced hepatotoxicity. In words: Determination of malondialdehyde (MDA) in liver tissue of CCl4-intoxicated rats. The series is classed as in vivo, Wistar albino rats. The protocol: as §1
Determination of malondialdehyde (MDA): The method reported by (Utley H. C. et al., Archives of Biochemistry Biophysics, 1967, 260, 521-531) was followed. Briefly, the liver tissues were removed, and tissue was homogenized in 0.15 M KCl (at 4° C.; Potter-Elvehjem type C homogenizer) to give a 10% w/v homogenate. The absorbance of the solution was then read at 532 nm. The content of malondialdehyde (nmol/g wet tissue) was then calculated, by reference to a standard curve of malondialdehyde solution.

The subject of series [4] is CCl4-induced hepatotoxicity. The experiment in a line: Estimation of hepatic non-protein sulfhydryls (NP-SH) in CCl4-intoxicated rats. It is filed as in vivo, Wistar albino rats. The settings on record: liver tissue; for NP-SH: n = 6, mean. The protocol: as §1
Estimation of non-protein sulfhydryls (NP-SH): Hepatic non-protein sulfhydryls were measured according to the method of Sedlak and Lindsay et. al., Analytical Biochemistry C, 1968, 25, 192-205. The livers were homogenized in ice-cold 0.02 mmol/L ethylenediaminetetraacetic acid (EDTA). The absorbance was measured within 5 min. of addition of 5,5′-dithio-bis(2-nitrobenzoic acid) (DTNB) at 412 nm against a reagent blank.

Series [5] relates to CCl4-induced hepatotoxicity in hepatocytes of rats. In words: Histopathological evaluation of liver of CCl4-intoxicated rats. It is filed as in vivo, Wistar albino rats. Conditions: light micrographs, hematoxylin and eosin. The protocol: as §1, with “The rat livers were dissected out and used for biochemical estimations and histological assessment.” left out
Series [6] has as its system CCl4-induced hepatotoxicity. In words: Estimation of serum marker enzymes and bilirubin in CCl4-intoxicated rats. The series is classed as in vivo, Wistar albino rats. The settings on record: 20 mg/kg orally for 2 weeks before CCl4, vs CCl4 group. On the procedure:
as §1
Estimation of marker enzymes: Serum glutamate oxaloacetate transaminase (SGOT/AST), serum glutamate pyruvate transaminase (SGPT/ALT) (Reitman S. A. et al., Am. J. Clin. Pathol. 1957, 28 (1), 56-63), alkaline phosphatase (ALP), gamma-glutamyl transferase (GGT) and bilirubin were determined using Reflotron Plus Analyzer and Roche kits (Roche Diagnostics GmbH, Mannheim, Germany) (King E. J. et al., Practical Clinical Biochemistry, H. Varley, Ed., CBS publishers, New Delhi, India, 1988).

Series [7] concerns CCl4-induced hepatotoxicity. In words: Determination of total protein (TP) in CCl4-intoxicated rats. It is filed as in vivo, Wistar albino rats. Conditions: liver tissue; for Total Protein: n = 6, mean. On the procedure: as §1
Determination of total protein (TP): Total protein was estimated by the kit method, supplied by Crescent Diagnostics, Jeddah, Saudi Arabia. The absorbance of this complex at 546 nm is proportional to the protein concentration. […]

As to `O=C1NC=C(C(=O)c2ccc3c(c2)OCCO3)C(c2ccc([N+](=O)[O-])cc2)N1` (centres unmarked) [DHPB-2, 4-(4-Nitrophenyl)-5-(2,3-dihydro-1,4-benzodioxin-6-ylcarbonyl)-3,4-dihydro-pyrimidin2(1H)-one], in series [1], the HDL cholesterol level entry is “significantly improved”, the LDL cholesterol level result is “significantly reduced”, the VLDL cholesterol level result was “significantly reduced” and the cholesterol level result is “significantly reduced”. The triglycerides level entry in series [1] is listed as “significantly reduced”. Besides, in series [2], the “dose up to which no toxicity symptoms and no morbidity were observed” value is reported as “up to 500 mg/kg”. For the same compound, the “level of MDA (in words)” value in series [3] (20 mg/kg, vs CCl4 group) is “significant reduction”. Moreover, in series [3] (dose 10 mg/kg + CCl4, n = 6, mean), the MDA stood at 6.84 nmol/g. Moreover, the MDA in series [3] (dose 20 mg/kg + CCl4, n = 6, mean) amounted to 1.59 nmol/g. In series [4] (20 mg/kg, vs CCl4 group), the “NP-SH level (in words)” value was “significantly enhanced”. The NP-SH in series [4] (dose 10 mg/kg + CCl4) is recorded as 4.30 nmol/g. For the same compound, the NP-SH in series [4] (dose 20 mg/kg + CCl4) is listed as 6.16 nmol/g. In series [5] (10 mg/kg/day oral pretreatment), the “histopathological assessment of the liver” value is listed as “marked improvement in liver parenchyma”. Besides, in series [5] (20 mg/kg/day oral pretreatment), the “histopathological assessment of the liver” value is “marked improvement in liver parenchyma”. In addition, in series [6], the ALP level entry was “significant decrease”, the ALT level entry is on record as “significant decrease”, the AST level result is recorded as “significant decrease” and the GGT level entry is “significant decrease”. The bilirubin level entry in series [6] is “significant decrease”. In series [7] (20 mg/kg, vs CCl4 group), the “TP level (in words)” value is on record as “significantly enhanced”. The “Total Protein” value in series [7] (dose 10 mg/kg + CCl4) was 38.11 g/L. For the same compound, the “Total Protein” value in series [7] (dose 20 mg/kg + CCl4) is given as 74.03 g/L.
With `CCOc1ccc(C2NC(=O)NC=C2C(=O)c2ccc3c(c2)OCCO3)cc1` (centres unmarked) [DHPB-6, 4-(4-Ethoxyphenyl)-5-(2,3-dihydro-1,4-benzodioxin-6-ylcarbonyl)-3,4-dihydro-pyrimidin-2(1H)-one], the melting point (in general, the temperature of the solid-liquid transition) lay within 210 to 212 °C.
